Results from patent US6828328B1, “Analgesic combination of muscarinic agonists” (UCB s.A., priority 2002, dated 2004).
Several values for one entry are separate records, joined by “and”; a condition that tells them apart may be missing. Equal values may be shown once.

Experiments:
CD-1 female mice [1] = assay: mouse tail-flick test (antinociception, %MPE); format: in vivo; conditions: for antinociception (%MPE): at 30 min
Description: Its antinociception (analgesia) in vivo had been investigated using the mouse tail flick test. The mouse tail-flick test is a well-known experimental model to verify the analgesic activity of potential moderate and severe pain relievers including muscarinic agonists (Chau, T. T: Analgesic Testing in Animal Models. Pharmacological Methods in the Control of Inflammation. 195-212. 1989, Alan R. Liss. Inc.). […] Other possible muscarinic agonist activities, such as tremor, sedation, salivation, and hypothermia were observed simultaneously.
(§1) Experiments were carried out using a commercially available tail-flick analgesia meter (model TF-6 analgesia meter, Emdie Instrument Company, Maidens, Va., USA). […] A 10-second cutoff time was used as the maximum latency to avoid tissue damage.
(§2) Control animals received the corresponding vehicle(s) by the same route of administration.
The percentage of maximum possible effect (%MPE) was calculated as follows:
%MPE=[(postdrug latency−predrug latency)÷(cutoff time−predrug latency)]×100%.
All results were expressed as mean±SEM. […] This comparison was carried out at the peak of antinociception (30 minutes). Student's T test (one tailed analysis)(Microsoft Excel 97, Microsoft Corporation, Redmond, Wash., USA) was used to analyse the statistical significance between the two groups. The value of p<0.05 was considered as statistically significant.
as §1, §2
All results were expressed as mean±SEM. […] This comparison was carried out at the peak of antinociception (30 minutes). One tailed Student's T test (Microsoft Excel 97, Microsoft Corporation, […], Wash., USA) was used to analysis the statistical significance between the two groups. The value of p<0.05 was considered as statistically significant.

CD-1 female mice [2] = assay: observation of muscarinic side effects (tremor, sedation, salivation); format: in vivo, mouse; conditions: at its ED50 dose
Procedure: (§3) Observations of tremor, sedation, and salivation were made by close visual inspection of the mice at 5, 15, 30 and 60 minutes after injection of 4-s-[4-propylsulfanyl)-1,2,5-thiadiazol-3-yl]-1-azatricyclo[3.3.1.1<3,7>]decane hydrochloride. Tremor and sedation were scored as +(indicated visible tremor or sedation) or −(indicated non-visible tremor or sedation). Salivation was scored according to the following scale: 0, no sign of saliva within animal's mouth; 1, evidence of saliva in animal's mouth, but not on animal's muzzle; and 2, evidence of saliva in animal's mouth and on muzzle. No other muscarinic receptor mediated activities were observed.
as §3, with “4-s-[4-(propylsulfanyl)-1,2,5-thiadiazol-3-yl]-1-azatricyclo[3.3.1.1<3,7>]decane” for “4-s-[4-propylsulfanyl)-1,2,5-thiadiazol-3-yl]-1-azatricyclo[3.3.1.1<3,7>]decane”

CS(=O)(=O)Nc1ccc([N+](=O)[O-])cc1OC1CCCCC1 [NS-398]
antinociceptive effect (CD-1 female mice [1]; NS-398 0.05 mg/kg ip alone): without antinociceptive effect

CCCSc1nsnc1[C@H]1[C@@H]2C[C@@H]3C[C@H]1CN(C3)C2.Cl [4-s-[4-(propylsulfanyl)-1,2,5-thiadiazol-3-yl]-1-azatricyclo[3.3.1.1<3,7>]decane hydrochloride]
incidence of muscarinic side effects (CD-1 female mice [2]): low incidence
antinociception (%MPE) (CD-1 female mice [1]; 0.03 mg/kg sc alone, hydrochloride): 19%
antinociception (%MPE) (CD-1 female mice [1]; 0.05 mg/kg sc alone): 38%
antinociceptive potency relative to morphine (CD-1 female mice [1]; mouse tail-flick test, more potent than morphine): 300-1000 fold

CN1CC[C@]23c4c5ccc(O)c4O[C@H]2[C@@H](O)C=C[C@H]3[C@H]1C5 [morphine]
antinociception (%MPE) (CD-1 female mice [1]; morphine 3 mg/kg sc alone): 13% and 25%
antinociception (%MPE) (CD-1 female mice [1]; morphine 5.0 mg/kg sc alone): 35%

CC(C)Cc1ccc(C(C)C(=O)O)cc1 (stereo not drawn) [ibuprofen]
antinociceptive effect (CD-1 female mice [1]; ibuprofen 50 mg/kg ip alone): without antinociceptive effect

CC(=O)Nc1ccc(O)cc1 [acetaminophen]
antinociceptive effect (CD-1 female mice [1]; acetaminophen 60 mg/kg ip alone): without antinociceptive effect
